Paper PMC11730311 (Scientific Reports, 2025)
Starred links: 1 amine or outer side, 2 acyl side, 3 side chain; linkers in the order of their positions; H or OH if unused. Residues, ends and D or L forms follow the SMILES beside them. Groups on a side chain read outwards from the residue. No end group written: not given here. *: point of attachment. C20 diacid = O=C(O)CCCCCCCCCCCCCCCCCCC(=O)*; γGlu = O=C(O)[C@H](CCC(=O)[*:2])N[*:1]

Key:
[1] = Pharmacokinetic pilot study, plasma exposure after IV dosing; assay type: in vivo, mouse; conditions: for half-life: male, NMRI, mouse, plasma, iv, 700 nmol/kg
[2] = molecular target: human calcitonin gene-related peptide receptor (hCGRP-R) (Homo sapiens, UniProt O60894+Q16602); experiment: cell-based
Chain of human calcitonin gene-related peptide receptor (hCGRP-R) (Q16602 23-461): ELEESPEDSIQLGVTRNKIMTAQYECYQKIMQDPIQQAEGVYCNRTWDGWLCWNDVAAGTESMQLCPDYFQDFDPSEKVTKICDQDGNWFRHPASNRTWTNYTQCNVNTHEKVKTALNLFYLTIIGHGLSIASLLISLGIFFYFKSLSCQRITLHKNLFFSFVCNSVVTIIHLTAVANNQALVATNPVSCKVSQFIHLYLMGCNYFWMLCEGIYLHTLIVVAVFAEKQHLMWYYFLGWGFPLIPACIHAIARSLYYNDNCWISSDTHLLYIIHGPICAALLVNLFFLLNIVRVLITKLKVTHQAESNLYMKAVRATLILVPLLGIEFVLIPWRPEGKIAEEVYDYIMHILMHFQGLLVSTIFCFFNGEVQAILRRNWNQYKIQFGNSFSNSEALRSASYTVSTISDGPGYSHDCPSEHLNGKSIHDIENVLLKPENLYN
Chain of human calcitonin gene-related peptide receptor (hCGRP-R) (O60894 27-148): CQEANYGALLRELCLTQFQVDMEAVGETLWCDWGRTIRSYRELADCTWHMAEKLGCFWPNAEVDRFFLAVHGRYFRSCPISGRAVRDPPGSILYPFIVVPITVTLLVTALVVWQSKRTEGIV

Compound | half-life [1] | difference in half-life versus hαCGRP8-37N25K-C20DA-γGlu ([1]; male NMRI mice, IV) | Kb [2]
CC(C)C[C@H](NC(=O)[C@H](CCCNC(=N)N)NC(=O)[C@H](Cc1c[nH]cn1)NC(=O)[C@@H](NC(=O)[C@@H](N)C(C)C)[C@@H](C)O)C(=O)N[C@@H](C)C(=O)N[C@@H](CCCCNC(=O)CC[C@H](NC(=O)CCCCCCCCCCCCCCCCCCC(=O)O)C(=O)O)C(=O)N[C@@H](CC(C)C)C(=O)N[C@@H](CC(C)C)C(=O)N[C@@H](CO)C(=O)N[C@@H](CCCNC(=N)N)C(=O)N[C@@H](CO)C(=O)NCC(=O)NCC(=O)N[C@H](C(=O)N[C@H](C(=O)N[C@@H](CCCCN)C(=O)N[C@@H](CC(N)=O)C(=O)N[C@@H](CC(N)=O)C(=O)N[C@@H](Cc1ccccc1)C(=O)N[C@H](C(=O)N1CCC[C@H]1C(=O)N[C@H](C(=O)N[C@@H](CC(N)=O)C(=O)N[C@H](C(=O)NCC(=O)N[C@@H](CO)C(=O)N[C@@H](CCCCN)C(=O)N[C@@H](C)C(=O)N[C@@H](Cc1ccccc1)C(N)=O)C(C)C)[C@@H](C)O)C(C)C)C(C)C)C(C)C [G14K-C20DA-γGlu] (H-VTHRLAK([γGlu-C20 diacid])LLSRSGGVVKNNFVPTNVGSKAF-NH2) | 10.1 h |  | 
CC(C)C[C@H](NC(=O)CNC(=O)[C@H](C)NC(=O)[C@H](CC(C)C)NC(=O)[C@H](CCCNC(=N)N)NC(=O)[C@H](Cc1c[nH]cn1)NC(=O)[C@@H](NC(=O)[C@@H](N)C(C)C)[C@@H](C)O)C(=O)N[C@@H](CC(C)C)C(=O)N[C@@H](CO)C(=O)N[C@@H](CCCNC(=N)N)C(=O)N[C@@H](CO)C(=O)N[C@@H](CCCCNC(=O)CC[C@H](NC(=O)CCCCCCCCCCCCCCCCCCC(=O)O)C(=O)O)C(=O)NCC(=O)N[C@H](C(=O)N[C@H](C(=O)N[C@@H](CCCCN)C(=O)N[C@@H](CC(N)=O)C(=O)N[C@@H](CC(N)=O)C(=O)N[C@@H](Cc1ccccc1)C(=O)N[C@H](C(=O)N1CCC[C@H]1C(=O)N[C@H](C(=O)N[C@@H](CC(N)=O)C(=O)N[C@H](C(=O)NCC(=O)N[C@@H](CO)C(=O)N[C@@H](CCCCN)C(=O)N[C@@H](C)C(=O)N[C@@H](Cc1ccccc1)C(N)=O)C(C)C)[C@@H](C)O)C(C)C)C(C)C)C(C)C [G20K-C20DA-γGlu] (H-VTHRLAGLLSRSK([γGlu-C20 diacid])GVVKNNFVPTNVGSKAF-NH2) | 7.5 h |  | 
CC(C)C[C@H](NC(=O)CNC(=O)[C@H](C)NC(=O)[C@H](CC(C)C)NC(=O)[C@H](CCCNC(=N)N)NC(=O)[C@H](Cc1c[nH]cn1)NC(=O)[C@@H](NC(=O)[C@@H](N)C(C)C)[C@@H](C)O)C(=O)N[C@@H](CC(C)C)C(=O)N[C@@H](CCCCNC(=O)CC[C@H](NC(=O)CCCCCCCCCCCCCCCCCCC(=O)O)C(=O)O)C(=O)N[C@@H](CCCNC(=N)N)C(=O)N[C@@H](CO)C(=O)NCC(=O)NCC(=O)N[C@H](C(=O)N[C@H](C(=O)N[C@@H](CCCCN)C(=O)N[C@@H](CC(N)=O)C(=O)N[C@@H](CC(N)=O)C(=O)N[C@@H](Cc1ccccc1)C(=O)N[C@H](C(=O)N1CCC[C@H]1C(=O)N[C@H](C(=O)N[C@@H](CC(N)=O)C(=O)N[C@H](C(=O)NCC(=O)N[C@@H](CO)C(=O)N[C@@H](CCCCN)C(=O)N[C@@H](C)C(=O)N[C@@H](Cc1ccccc1)C(N)=O)C(C)C)[C@@H](C)O)C(C)C)C(C)C)C(C)C [S17K-C20DA-γGlu] (H-VTHRLAGLLK([γGlu-C20 diacid])RSGGVVKNNFVPTNVGSKAF-NH2) | 12.3 h |  | 
CC(C)C[C@H](NC(=O)CNC(=O)[C@H](C)NC(=O)[C@H](CC(C)C)NC(=O)[C@H](CCCNC(=N)N)NC(=O)[C@H](Cc1c[nH]cn1)NC(=O)[C@@H](NC(=O)[C@@H](N)C(C)C)[C@@H](C)O)C(=O)N[C@@H](CC(C)C)C(=O)N[C@@H](CO)C(=O)N[C@@H](CCCNC(=N)N)C(=O)N[C@@H](CCCCNC(=O)CC[C@H](NC(=O)CCCCCCCCCCCCCCCCCCC(=O)O)C(=O)O)C(=O)NCC(=O)NCC(=O)N[C@H](C(=O)N[C@H](C(=O)N[C@@H](CCCCN)C(=O)N[C@@H](CC(N)=O)C(=O)N[C@@H](CC(N)=O)C(=O)N[C@@H](Cc1ccccc1)C(=O)N[C@H](C(=O)N1CCC[C@H]1C(=O)N[C@H](C(=O)N[C@@H](CC(N)=O)C(=O)N[C@H](C(=O)NCC(=O)N[C@@H](CO)C(=O)N[C@@H](CCCCN)C(=O)N[C@@H](C)C(=O)N[C@@H](Cc1ccccc1)C(N)=O)C(C)C)[C@@H](C)O)C(C)C)C(C)C)C(C)C [S19K-C20DA-γGlu] (H-VTHRLAGLLSRK([γGlu-C20 diacid])GGVVKNNFVPTNVGSKAF-NH2) | 13.7 h | ~ 6 h | 
CC(C)C[C@H](NC(=O)CNC(=O)[C@H](C)NC(=O)[C@H](CC(C)C)NC(=O)[C@H](CCCNC(=N)N)NC(=O)[C@H](Cc1c[nH]cn1)NC(=O)[C@@H](NC(=O)[C@@H](N)C(C)C)[C@@H](C)O)C(=O)N[C@@H](CC(C)C)C(=O)N[C@@H](CO)C(=O)N[C@@H](CCCNC(=N)N)C(=O)N[C@@H](CO)C(=O)NCC(=O)NCC(=O)N[C@H](C(=O)N[C@H](C(=O)N[C@@H](CCCCN)C(=O)N[C@@H](CCCCNC(=O)CC[C@H](NC(=O)CCCCCCCCCCCCCCCCCCC(=O)O)C(=O)O)C(=O)N[C@@H](CC(N)=O)C(=O)N[C@@H](Cc1ccccc1)C(=O)N[C@H](C(=O)N1CCC[C@H]1C(=O)N[C@H](C(=O)N[C@@H](CC(N)=O)C(=O)N[C@H](C(=O)NCC(=O)N[C@@H](CO)C(=O)N[C@@H](CCCCN)C(=O)N[C@@H](CO)C(=O)N[C@@H](Cc1ccccc1)C(N)=O)C(C)C)[C@@H](C)O)C(C)C)C(C)C)C(C)C [hαCGRP8-37A36S, N25K-C20DA-γGlu] (H-VTHRLAGLLSRSGGVVKK([γGlu-C20 diacid])NFVPTNVGSKSF-NH2) |  |  | 6.76 nM
CC(C)C[C@H](NC(=O)CNC(=O)[C@H](C)NC(=O)[C@H](CC(C)C)NC(=O)[C@H](CCCNC(=N)N)NC(=O)[C@H](Cc1c[nH]cn1)NC(=O)[C@@H](NC(=O)[C@@H](N)C(C)C)[C@@H](C)O)C(=O)N[C@@H](CC(C)C)C(=O)N[C@@H](CO)C(=O)N[C@@H](CCCNC(=N)N)C(=O)N[C@@H](CO)C(=O)NCC(=O)NCC(=O)N[C@H](C(=O)N[C@H](C(=O)N[C@@H](CCCCN)C(=O)N[C@@H](CCCCNC(=O)CC[C@H](NC(=O)CCCCCCCCCCCCCCCCCCC(=O)O)C(=O)O)C(=O)N[C@@H](CC(N)=O)C(=O)N[C@@H](Cc1ccccc1)C(=O)N[C@H](C(=O)N1CCC[C@H]1C(=O)N[C@H](C(=O)N[C@@H](CC(N)=O)C(=O)N[C@H](C(=O)NCC(=O)N[C@@H](CO)C(=O)N[C@@H](CCCCN)C(=O)N[C@@H](C)C(=O)N[C@@H](Cc1ccccc1)C(N)=O)C(C)C)[C@@H](C)O)C(C)C)C(C)C)C(C)C [hαCGRP8-37N25K-C20DA-γGlu] | 7.3 h |  | 4.68 nM
VTHRLAGLLSRSGGVVKNNFVPTNVGSKSF-NH2 [hαCGRP8-37A36S] |  |  | 1.66 nM
